Results on eight molecules are retold here after patent US11957759B1, “Rapidly accelerated fibrosarcoma (RAF) degrading compounds and associated methods of use” (Arvinas Operations, Inc., priority 2022, dated 2024).

Assay [1] deals with T1, B-RAF V600E (Homo sapiens, UniProt P15056, V600E).
T1 construct: expressed in transfected cells; host or cells: T-Rex 293 cells (Invitrogen #R71007)
Put plainly: Target protein degradation, assay C: T-Rex 293 cells, HA-BRAF_V600E, 384 well format. In kind it is cell-based. Conditions: T-Rex 293 HA-BRAF_V600E cells, 24 hours, Examples 83-269; for Dmax: T-REx-293, Assay C. As for the experimental part:
C. T-Rex 293 Cells (384 Well Format)
(§1) T-Rex 293 cells were purchased from Invitrogen (#R71007), and stably transfected with a pcDNA4/TO_HA-BRAF_V600E construct, using 400 ug Zeocin for selection. V600E cells are plated in DMEM media (Gibco #11965118) containing 10% FBS (Gibco #16000044), 1% penicillin-streptomycin (ThermoFisher #15140122), 1:250 zeocin (Invitrogen #R-25005), and 1 ng/mL doxycycline (Selleckchem #4163) at a density of 7,500 cells/well in 45 μl on PDL coated, black clear bottom 384 well plates (Corning #354663) and incubated at 37° C.+5% CO2 for 24 hours. The following day, PROTAC compounds in a 1:3 11 point dilution are diluted into DMEM media using an Agilent Bravo. 5 ul of PROTACs suspended in DMEM media are added to the cells, with a final assay concentration ranging from 300 nM to 5 pM in 0.5% DMSO. Plates are incubated at 37° C.+5% CO2 for 24 hours. At the end of treatment, media is aspirated, and cells are fixed in 50 uL 4% PFA (EMS #15710) in PBS++(PBS, 1 mM CaCl, 1 mM MgCl) at RT for 15 minutes. Cells are washed 2× with 60 uL PBS++ and permeabilized in 50 uL 1% Triton X-100 (Sigma #93443) in PBS++ for 5 minutes at RT. Cells are washed in PBS++ prior to blocking with 50 uL Licor blocking buffer (Licor #927-60001) for 1 hour at RT. HA-tagged BRAF was stained using 50 uL HA antibody (CST #3724) at 1:1000 in Licor blocking buffer for two hours at RT. Primary is aspirated before adding 50 ul of secondary antibody solution containing 1:1000 Hoechst (ThermoFisher #62249), 1:1000 HCS CellMask Deep Red Stain (ThermoFisher #H32721), and 1:5000 goat anti-rabbit IgG Alexa-Fluor 488 (ThermoFisher #A32731) in PBS++ for 1 hr at RT. Plates are washed 4× with 60 uL PBS++, then sealed with Adhesive Black Light Absorbing Film (VWR #89087-692) and imaged on the ThermoFisher CX7 PRO high content instrument. BRAF intensity is quantified in HCS Studio software (ThermoFisher), using a custom script, exported, analyzed using KNIME, and curve curation is performed in an ELN (Scilligence). Cell toxicity is measured via comparing number of nuclei in PROTAC treated wells to DMSO controls.
(§2) The concentration of an exemplary compound that leads to half maximal degradation (DC50) as well as the maximum degradation observed (Dmax, conventionally expressed as a percentage of control) is shown below in Table 2.

In assay [2] the target is T2, B-RAF G466V (Homo sapiens, UniProt P15056, G466V).
T2 construct: expressed in transfected cells; host or cells: T-Rex 293 cells (Invitrogen #R71007)
T2 sequence (P15056 whole entry G466V): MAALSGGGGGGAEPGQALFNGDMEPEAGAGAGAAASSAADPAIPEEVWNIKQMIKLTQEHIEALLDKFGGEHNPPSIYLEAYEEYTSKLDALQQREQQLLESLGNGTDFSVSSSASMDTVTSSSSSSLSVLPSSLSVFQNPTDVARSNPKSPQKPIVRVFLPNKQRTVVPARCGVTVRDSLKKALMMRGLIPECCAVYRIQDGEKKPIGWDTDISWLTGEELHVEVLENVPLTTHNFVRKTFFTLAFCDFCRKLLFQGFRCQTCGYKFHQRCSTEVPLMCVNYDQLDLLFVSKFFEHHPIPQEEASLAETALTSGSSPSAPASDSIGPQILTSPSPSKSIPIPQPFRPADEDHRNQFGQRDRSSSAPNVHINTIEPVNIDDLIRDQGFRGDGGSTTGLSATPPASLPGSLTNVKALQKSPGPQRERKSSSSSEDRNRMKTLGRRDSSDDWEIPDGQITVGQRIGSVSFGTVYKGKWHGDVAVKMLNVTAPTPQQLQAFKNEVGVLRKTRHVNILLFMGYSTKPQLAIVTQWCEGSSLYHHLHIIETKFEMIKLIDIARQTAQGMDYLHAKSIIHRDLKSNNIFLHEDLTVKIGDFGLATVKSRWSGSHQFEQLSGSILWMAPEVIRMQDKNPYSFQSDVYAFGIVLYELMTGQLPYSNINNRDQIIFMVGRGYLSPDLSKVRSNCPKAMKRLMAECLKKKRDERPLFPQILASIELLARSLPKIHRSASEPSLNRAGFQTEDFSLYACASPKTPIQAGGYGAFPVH
Nature of the assay: Target protein degradation, assay D: T-Rex 293 cells, HA-BRAF_G466V, 384 well format. The note with it: T-Rex 293 HA-BRAF_G466V cells, 24 hours, Examples 83-269. In kind it is cell-based. As for the experimental part:
D. T-Rex 293 Cells (384 Well Format)
as §1, with “pcDNA4/TO_HA-BRAF_G466V” for “pcDNA4/TO_HA-BRAF_V600E”, “G466V” for “V600E”
as §2

T1 sequence (P15056 whole entry V600E): as the sequence (P15056 whole entry G466V) above, with V466G, V600E counted along it

The DC50 is the concentration giving 50% degradation. In general, Dmax refers to the greatest extent of degradation seen. Low values mean shallow degradation, high ones deep degradation. Consider `Cc1c(N2CCC(CN3CCN(c4ccc(-n5cnc6ccc(Oc7c(F)ccc(NS(=O)(=O)N8CC[C@@H](F)C8)c7C#N)cc6c5=O)cc4)CC3)CC2)ccc2c1CN(C1CCC(=O)NC1=O)C2=O` (single isomer, unassigned) [Example 111, (3R)-N-(2-cyano-3-{[3-(4-{4-[(1-{2-[(3R*)-2,6-dioxopiperidin-3-yl]-4-methyl-1-oxo-2,3-dihydro-1H-isoindol-5-yl}piperidin-4-yl)methyl]piperazin-1-yl}phenyl)-4-oxo-3,4-dihydroquinazolin-6-yl]oxy}-4-fluorophenyl)-3-fluoropyrrolidine-1-sulfonamide], for which the DC50 was 50 to 500 nM in assay [1] (Assay C) and 1 to 10 nM in assay [2] (Assay D). The Dmax in assay [1] fell in the range of 35 to 70%; in assay [2] (T-REx-293, Assay D), 35 to 70%.
`Cc1cc(N2CCC(CN3CCN(c4ccc(-n5cnc6ccc(Oc7c(F)ccc(NS(=O)(=O)N8CC[C@@H](F)C8)c7C#N)cc6c5=O)cc4)CC3)CC2)c(F)c2c1C(=O)N(C1CCC(=O)NC1=O)C2` (single isomer, unassigned) [Example 120, (3R)-N-(2-cyano-3-{[3-(4-{4-[(1-{2-[(3R*)-2,6-dioxopiperidin-3-yl]-4-fluoro-7-methyl-1-oxo-2,3-dihydro-1H-isoindol-5-yl}piperidin-4-yl)methyl]piperazin-1-yl}phenyl)-4-oxo-3,4-dihydroquinazolin-6-yl]oxy}-4-fluorophenyl)-3-fluoropyrrolidine-1-sulfonamide] gave a DC50 in assay [1] (Assay C) of 5 to 50 nM. The same molecule had a Dmax in assay [1] of at most 35%.
As for `Cc1cc(N2CCC(CN3CCN(c4ccc(-n5cnc6ccc(Oc7c(F)ccc(NS(=O)(=O)N8CC[C@@H](F)C8)c7C#N)cc6c5=O)cc4)CC3)CC2)c(F)c2c1C(=O)N(C1CCC(=O)NC1=O)C2` (single isomer, unassigned) [Example 121, (3R)-N-(2-cyano-3-{[3-(4-{4-[(1-{2-[(3R*)-2,6-dioxopiperidin-3-yl]-4-fluoro-7-methyl-1-oxo-2,3-dihydro-1H-isoindol-5-yl}piperidin-4-yl)methyl]piperazin-1-yl}phenyl)-4-oxo-3,4-dihydroquinazolin-6-yl]oxy}-4-fluorophenyl)-3-fluoropyrrolidine-1-sulfonamide], in assay [1] (Assay C), the “B-RAF V600E DMax (%)” value was “B (35 < B < 70)” and the DC50 was 50 to 500 nM.
In the case of `CCN(C)S(=O)(=O)Nc1ccc(F)c(Oc2ccc3ncn(-c4ccc(N5CCC(CN6CCC(c7ccc8c(c7)CN(C7CCC(=O)NC7=O)C8=O)CC6)CC5)cc4)c(=O)c3c2)c1C#N` (stereo not shown) [Example 115, 2-[(3-{4-[4-({4-[2-(2,6-dioxopiperidin-3-yl)-1-oxo-2,3-dihydro-1H-isoindol-5-yl]piperidin-1-yl}methyl)piperidin-1-yl]phenyl}-4-oxo-3,4-dihydroquinazolin-6-yl)oxy]-6-{[ethyl(methyl)sulfamoyl]amino}-3-fluorobenzonitrile], the DC50 in assay [1] (Assay C) lay within 50 to 500 nM. The Dmax in assay [1] was 35 to 70%.
For `N#Cc1c(NS(=O)(=O)N2CC[C@@H](F)C2)ccc(F)c1Oc1ccc2ncn(-c3ccc(N4CCN(CC5CCN(c6ccc7c(c6)CN(C6CCC(=O)NC6=O)C7=O)CC5)CC4)s3)c(=O)c2c1` (stereo partly drawn) [Example 116, (3R)-N-{2-cyano-3-[(3-{5-[4-({1-[2-(2,6-dioxopiperidin-3-yl)-1-oxo-2,3-dihydro-1H-isoindol-5-yl]piperidin-4-yl}methyl)piperazin-1-yl]thiophen-2-yl}-4-oxo-3,4-dihydroquinazolin-6-yl)oxy]-4-fluorophenyl}-3-fluoropyrrolidine-1-sulfonamide], in that order: 50 to 500 nM and at most 35%.
For `C[C@H]1CN(CC2CCN(c3ccc4c(c3F)CN([C@H]3CCC(=O)NC3=O)C4=O)CC2)CCN1c1ccc(-n2cnc3ccc(Oc4c(F)ccc(NS(=O)(=O)N5CC[C@@H](F)C5)c4C#N)cc3c2=O)cc1` [Example 117, (3R)-N-{2-cyano-3-[(3-(4-[(2S)-4-[(1-{2-[(3S)-2,6-dioxopiperidin-3-yl]-4-fluoro-1-oxo-2,3-dihydro-1H-isoindol-5-yl}piperidin-4-yl)methyl]-2-methylpiperazin-1-yl]phenyl}-4-oxo-3,4-dihydroquinazolin-6-yl)oxy]-4-fluorophenyl}-3-fluoropyrrolidine-1-sulfonamide], in that order: 50 to 500 nM and 35 to 70%.
Take `C[C@H]1CN(CC2CCN(c3ccc4c(c3F)CN([C@@H]3CCC(=O)NC3=O)C4=O)CC2)CCN1c1ccc(-n2cnc3ccc(Oc4c(F)ccc(NS(=O)(=O)N5CC[C@@H](F)C5)c4C#N)cc3c2=O)cc1` [Example 118, (3R)-N-{2-cyano-3-[(3-(4-[(2S)-4-[(1-{2-[(3R)-2,6-dioxopiperidin-3-yl]-4-fluoro-1-oxo-2,3-dihydro-1H-isoindol-5-yl}piperidin-4-yl)methyl]-2-methylpiperazin-1-yl]phenyl}-4-oxo-3,4-dihydroquinazolin-6-yl)oxy]-4-fluorophenyl}-3-fluoropyrrolidine-1-sulfonamide]: in assay [1] (Assay C), the DC50 was above 500 nM.
The same measure, in the same setting: the same measure for `N#Cc1c(NS(=O)(=O)N2CC[C@@H](F)C2)ccc(F)c1Oc1ccc2ncn(-c3ccc(N4CCC(CN5CC6(CC(c7ccc8c(c7)C(=O)N(C7CCC(=O)NC7=O)C8=O)C6)C5)CC4)cc3)c(=O)c2c1` (stereo partly drawn) [Example 119, (3R)-N-{2-cyano-3-[(3-{4-[4-({6-[2-(2,6-dioxopiperidin-3-yl)-1,3-dioxo-2,3-dihydro-1H-isoindol-5-yl]-2-azaspiro[3.3]heptan-2-yl}methyl)piperidin-1-yl]phenyl}-4-oxo-3,4-dihydroquinazolin-6-yl)oxy]-4-fluorophenyl}-3-fluoropyrrolidine-1-sulfonamide]: above 500 nM.
